Experimental data from patent publication US8969565B2, “Imidazo[1,2-b]pyridazine-based compounds, compositions comprising them, and methods of their use” (Lexicon Pharmaceuticals, Inc., priority 2012, dated 2015).

Columns and labels:
AAK1 [1] = molecular target: T1, AAK1 (Homo sapiens, UniProt Q2M2I8); experiment: P81 filter plate assay; format: biochemical; conditions: full-length human AAK1, Mu2 substrate
T1 construct: HA; expressed in transfected cells; host or cells: HEK293F
Experimental: Compounds were serially diluted into a Labcyte LDV plate (Labcyte, cat#LP-0200) using a Mutiprobe (PerkinElmer) and Biomek FX (Beckman Coulter) so that the highest compound concentration was at 96 μM. Compounds were then pinged (75 nL per well) into a Greiner 384-well reaction plate (Greiner, #781076) using an ECHO 550 Liquid Handler (Labcyte). A total of 12 μl reaction buffer (IMAP buffer containing Tween and DTT, from Molecular Devices) was then added to each well of columns 1 and 13 for the negative controls and 12 μl of 2×AAK1 (0.2 nM full-length human protein, NCBI accession no. NP_055726.2) was added to the remaining wells. Enzyme was then pre-incubated with compound for 10 minutes at RT. Reactions were initiated upon Minitrak (PerkinElmer) addition of 12 μl substrate mix containing 2×Mu2 (0.2 μM, full length human protein), 2× cold ATP (2 μM), and 1.3 μCi of hot ^33P-ATP. Reactions proceeded for one hour at RT. Meanwhile, Millipore 384-well P81 filter plates (Millipore, catalog #MZPHNOW10) were placed on a plate washer (Zoom ZW, from Titertek) and pre-wet with 50 μl 1% phosphoric acid. Kinase reactions were then stopped upon addition of 24 μl of 2% phosphoric acid to each well and the Minitrak was then used to transfer 40 μl from each well into the pre-wet Millipore 384-well P81 filter plates. Reaction mixtures were incubated for 10 minutes at RT in the P81 plates, followed by washing five times with 100 μl/well of 1% phosphoric acid using the Zoom filter washer. The bottom of each filter plate was sealed followed by addition of 20 μl Microscint 40 to each well, sealing the top of the plates with Flashplate cover, and then waiting one hour until reading on the TopCount (PerkinElmer).

AAK1 [2] = molecular target: T1, AAK1; experiment: HEK281 cell-based assay (phospho-mu2 Western blot in transfected HEK293F cells); conditions: 3 hours incubation, read-out: CBA IC50
In short: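 HEK293F cells co-transfected with full-length human AAK1/HA and Flag/AP2M1 were treated next day with 5 compound concentrations (3-fold dilutions) in DMEM+0.5% FBS for 3 hours at 37° C. Lysates were Western blotted for phospho-mu2, with total mu2 detected by anti-Flag.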

T1 sequence (Q2M2I8 1-863 isoform Q2M2I8-2): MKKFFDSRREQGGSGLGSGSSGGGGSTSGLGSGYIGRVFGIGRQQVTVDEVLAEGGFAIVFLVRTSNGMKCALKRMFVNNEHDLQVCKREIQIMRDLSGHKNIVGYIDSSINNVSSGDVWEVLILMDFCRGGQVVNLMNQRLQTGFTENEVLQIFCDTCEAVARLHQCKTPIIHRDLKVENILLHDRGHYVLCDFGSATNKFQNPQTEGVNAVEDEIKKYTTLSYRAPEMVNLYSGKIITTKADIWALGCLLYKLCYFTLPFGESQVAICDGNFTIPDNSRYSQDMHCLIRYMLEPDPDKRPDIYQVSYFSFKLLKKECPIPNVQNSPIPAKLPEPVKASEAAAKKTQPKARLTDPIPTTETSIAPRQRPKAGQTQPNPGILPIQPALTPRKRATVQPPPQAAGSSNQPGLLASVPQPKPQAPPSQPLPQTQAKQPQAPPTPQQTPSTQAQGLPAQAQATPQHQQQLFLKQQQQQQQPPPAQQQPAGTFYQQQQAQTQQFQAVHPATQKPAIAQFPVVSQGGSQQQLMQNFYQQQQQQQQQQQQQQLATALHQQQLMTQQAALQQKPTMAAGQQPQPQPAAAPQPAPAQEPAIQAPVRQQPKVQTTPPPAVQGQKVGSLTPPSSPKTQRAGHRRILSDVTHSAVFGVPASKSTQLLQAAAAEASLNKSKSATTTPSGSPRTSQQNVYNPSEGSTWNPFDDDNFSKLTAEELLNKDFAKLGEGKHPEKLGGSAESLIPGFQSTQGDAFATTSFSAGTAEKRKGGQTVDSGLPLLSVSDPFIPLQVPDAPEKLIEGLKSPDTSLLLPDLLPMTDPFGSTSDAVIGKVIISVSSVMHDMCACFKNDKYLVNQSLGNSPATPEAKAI

IC50 (AAK1 [1]) [µM] | IC50 (AAK1 [2]) [µM] | SMILES
≤ 0.01 | ≤ 0.1 | CC(C)(C)NC(=O)N1CCC[C@H]1CNc1ccc2ncc(-c3ccncc3)n2n1 [(S)-N-(tert-butyl)-2-(((3-(pyridin-4-yl)imidazo[1,2-b]pyridazin-6-yl)amino)methyl)pyrrolidine-1-carboxamide]
≤ 0.01 | ≤ 0.1 | CN(C)C(=O)c1cccc(-c2cnc3ccc(N4CCN(C(=O)N5CCCC5)CC4)nn23)c1 [N,N-dimethyl-3-(6-(4-(pyrrolidine-1-carbonyl)piperazin-1-yl)imidazo[1,2-b]pyridazin-3-yl)benzamide]
≤ 0.01 | ≤ 0.1 | CC(C)(C)NC(=O)N1CCC[C@H]1CNc1ccc2ncc(-c3ccccc3)n2n1 [(S)-N-(tert-butyl)-2-(((3-phenylimidazo[1,2-b]pyridazin-6-yl)amino)methyl)pyrrolidine-1-carboxamide]
≤ 0.01 | ≤ 0.01 | Cc1nc(C)c(-c2cnc3ccc(NC[C@@H]4CCCN4C(=O)CC(C)C)nn23)s1 [(S)-1-(2-(((3-(2,4-dimethylthiazol-5-yl)imidazo[1,2-b]pyridazin-6-yl)amino)methyl)pyrrolidin-1-yl)-3-methylbutan-1-one]
≤ 0.01 | ≤ 0.1 | COc1ncccc1-c1cnc2ccc(N3CC[C@H](N(C)C(=O)N4CCCC4)C3)nn12 [(S)—N-(1-(3-(2-methoxypyridin-3-yl)imidazo[1,2-b]pyridazin-6-yl)pyrrolidin-3-yl)-N-methylpyrrolidine-1-carboxamide]
≤ 0.01 | ≤ 0.1 | O=C(OC1CCCC1)N1CCC[C@H]1CNc1ccc2ncc(-c3ccccc3)n2n1 [(S)-cyclopentyl 2-(((3-phenylimidazo[1,2-b]pyridazin-6-yl)amino)methyl)pyrrolidine-1-carboxylate]
≤ 0.01 | ≤ 0.1 | CC(C)(C)COC(=O)N1CCC[C@H]1CNc1ccc2ncc(-c3ccncc3)n2n1 [(S)-neopentyl 2-(((3-(pyridin-4-yl)imidazo[1,2-b]pyridazin-6-yl)amino)methyl)pyrrolidine-1-carboxylate]
≤ 0.01 | ≤ 1 | CC(C)OC(=O)N1CCN(c2ccc3ncc(-c4cccc(Cl)c4)n3n2)CC1 [isopropyl 4-(3-(3-chlorophenyl)imidazo[1,2-b]pyridazin-6-yl)piperazine-1-carboxylate]
≤ 1 |  | CCCC(=O)N(C)[C@H]1CCN(c2ccc3ncc(-c4cccnc4)n3n2)C1 [(S)-N-methyl-N-(1-(3-(pyridin-3-yl)imidazo[1,2-b]pyridazin-6-yl)pyrrolidin-3-yl)butyramide]
≤ 0.01 |  | O=C(OCC1CC1)N1CCC[C@H]1CNc1ccc2ncc(-c3ccncc3)n2n1 [(S)-cyclopropylmethyl 2-(((3-(pyridin-4-yl)imidazo[1,2-b]pyridazin-6-yl)amino)methyl)pyrrolidine-1-carboxylate]
≤ 0.01 |  | CCCC(=O)N1CCC[C@H]1CNc1ccc2ncc(-c3ccncc3)n2n1 [(S)-1-(2-(((3-(pyridin-4-yl)imidazo[1,2-b]pyridazin-6-yl)amino)methyl)pyrrolidin-1-yl)butan-1-one]
≤ 1 |  | COCCO[C@H]1CCN(c2ccc3ncc(-c4cccnc4OC)n3n2)C1 [(S)-6-(3-(2-methoxyethoxy)pyrrolidin-1-yl)-3-(2-methoxypyridin-3-yl)imidazo[1,2-b]pyridazine]
≤ 0.01 |  | O=C(OC1CCOC1)N1CCC[C@H]1CNc1ccc2ncc(-c3ccncc3)n2n1 (stereo partly drawn) [(2S)-tetrahydrofuran-3-yl 2-(((3-(pyridin-4-yl)imidazo[1,2-b]pyridazin-6-yl)amino)methyl)pyrrolidine-1-carboxylate]
≤ 0.01 |  | CC(C)CC(=O)N1CCC[C@H]1CNc1ccc2ncc(C3=CCCC3)n2n1 [(S)-1-(2-(((3-(cyclopent-1-en-1-yl)imidazo[1,2-b]pyridazin-6-yl)amino)methyl)pyrrolidin-1-yl)-3-methylbutan-1-one]
≤ 1 |  | COc1ncccc1-c1cnc2ccc(N3CC[C@H](O)C3)nn12 [(S)-1-(3-(2-methoxypyridin-3-yl)imidazo[1,2-b]pyridazin-6-yl)pyrrolidin-3-ol]
≤ 0.1 |  | COc1ncccc1-c1cnc2ccc(OC[C@@H]3CCCN3C(=O)OC(C)C)nn12 [(S)-isopropyl 2-(((3-(2-methoxypyridin-3-yl)imidazo[1,2-b]pyridazin-6-yl)oxy)methyl)pyrrolidine-1-carboxylate]
≤ 0.01 |  | O=C(OCC1CC1)N1CCC[C@H]1CNc1ccc2ncc(Br)n2n1 [(S)-cyclopropylmethyl 2-(((3-bromoimidazo[1,2-b]pyridazin-6-yl)amino)methyl)pyrrolidine-1-carboxylate]

IC50 (AAK1 [1]) [µM] | IC50 (AAK1 [2]) [µM] | SMILES
≤ 0.01 |  | CC(C)(C)CCN1C(=O)CC[C@H]1CNc1ccc2ncc(-c3ccncc3)n2n1 [(S)-1-(3,3-dimethylbutyl)-5-(((3-(pyridin-4-yl)imidazo[1,2-b]pyridazin-6-yl)amino)methyl)pyrrolidin-2-one]
≤ 0.1 |  | CC(C)OC(=O)N1CCC[C@H]1COc1ccc2ncc(-c3cccnc3O)n2n1 [(S)-isopropyl 2-(((3-(2-hydroxypyridin-3-yl)imidazo[1,2-b]pyridazin-6-yl)oxy)methyl)pyrrolidine-1-carboxylate]
≤ 0.1 |  | CN(C(=O)N1CCCC1)[C@H]1CCN(c2ccc3ncc(Br)n3n2)C1 [(S)-N-(1-(3-bromoimidazo[1,2-b]pyridazin-6-yl)pyrrolidin-3-yl)-N-methylpyrrolidine-1-carboxamide]
≤ 0.1 |  | CC(C)OC(=O)N(C)[C@H]1CCN(c2ccc3ncc(-c4ccncc4)n3n2)C1 [(S)-isopropyl methyl(1-(3-(pyridin-4-yl)imidazo[1,2-b]pyridazin-6-yl)pyrrolidin-3-yl)carbamate]
≤ 0.1 |  | Cc1csc(-c2cnc3ccc(NCCOC4CCCC4)nn23)c1 [N-(2-(cyclopentyloxy)ethyl)-3-(4-methylthiophen-2-yl)imidazo[1,2-b]pyridazin-6-amine]
≤ 0.1 |  | CCOC(=O)N1CCN(c2ccc3ncc(C(=O)NC)n3n2)CC1 [ethyl 4-(3-(methylcarbamoyl)imidazo[1,2-b]pyridazin-6-yl)piperazine-1-carboxylate]
≤ 0.1 |  | Cc1ccc(-c2cnc3ccc(N4CC[C@H](N(C)C(=O)OC(C)C)C4)nn23)c(=O)n1C [(S)-isopropyl (1-(3-(1,6-dimethyl-2-oxo-1,2-dihydropyridin-3-yl)imidazo[1,2-b]pyridazin-6-yl)pyrrolidin-3-yl)(methyl)carbamate]
≤ 0.01 |  | O=C(OC1CCOC1)N1CCC[C@H]1CNc1ccc2ncc(Br)n2n1 (stereo partly drawn) [(2S)-tetrahydrofuran-3-yl 2-(((3-bromoimidazo[1,2-b]pyridazin-6-yl)amino)methyl)pyrrolidine-1-carboxylate]
≤ 0.1 |  | CC(C)CC(=O)N(C)[C@H]1CCN(c2ccc3ncc(-c4cccnc4O)n3n2)C1 [(S)-N-(1-(3-(2-hydroxypyridin-3-yl)imidazo[1,2-b]pyridazin-6-yl)pyrrolidin-3-yl)-N,3-dimethylbutanamide]
≤ 0.1 |  | CC(C)(C)C(=O)N1CCN(c2ccc3ncc(-c4ccccc4)n3n2)CC1 [2,2-dimethyl-1-(4-(3-phenylimidazo[1,2-b]pyridazin-6-yl)piperazin-1-yl)propan-1-one]
≤ 0.01 |  | CC(C)C[C@H](N)C(=O)N1CCN(c2ccc3ncc(Br)n3n2)CC1 [(S)-2-amino-1-(4-(3-bromoimidazo[1,2-b]pyridazin-6-yl)piperazin-1-yl)-4-methylpentan-1-one]
≤ 0.01 |  | OCc1ccc(-c2cnc3ccc(NCCOC4CCCC4)nn23)cc1 [(4-(6-((2-(cyclopentyloxy)ethyl)amino)imidazo[1,2-b]pyridazin-3-yl)phenyl)methanol]
≤ 0.01 |  | CN(C(=O)OC(C)(C)C)[C@H]1CCN(c2ccc3ncc(-c4cccnc4)n3n2)C1 [(S)-tert-butyl methyl(1-(3-(pyridin-3-yl)imidazo[1,2-b]pyridazin-6-yl)pyrrolidin-3-yl)carbamate]
≤ 0.01 |  | COc1cnccc1-c1cnc2ccc(NC3CCCCC3)nn12 [N-cyclohexyl-3-(3-methoxypyridin-4-yl)imidazo[1,2-b]pyridazin-6-amine]
≤ 0.1 |  | COCCO[C@H]1CCN(c2ccc3ncc(-c4ccc(C)nc4OC)n3n2)C1 [(S)-3-(2-methoxy-6-methylpyridin-3-yl)-6-(3-(2-methoxyethoxy)pyrrolidin-1-yl)imidazo[1,2-b]pyridazine]
≤ 0.1 |  | CC(=O)c1cnc2ccc(N3CCN(C(=O)C4(N)CCCC4)CC3)nn12 [1-(6-(4-(1-aminocyclopentanecarbonyl)piperazin-1-yl)imidazo[1,2-b]pyridazin-3-yl)ethanone]
≤ 0.01 |  | CN(C(=O)CC(F)(F)F)[C@H]1CCN(c2ccc3ncc(-c4cccnc4O)n3n2)C1 [(S)-3,3,3-trifluoro-N-(1-(3-(2-hydroxypyridin-3-yl)imidazo[1,2-b]pyridazin-6-yl)pyrrolidin-3-yl)-N-methylpropanamide]
